Measurements as given in publication PMC9951290, “Comprehensive Structure–Activity Relationship Studies of Cepafungin Enabled by Biocatalytic C–H Oxidations” (ACS Central Science, 2023).
Read-outs that look alike come from different tables or passages of the source.

Key:
[1] = target: T1, proteasome subunit β5 (Homo sapiens, UniProt P28074); assay: In situ β5 proteasome activity assay (Suc-LLVY-AMC) in RPMI 8226 cells; format: cell-based
T1 construct: Following incubation of the compounds in cell culture for 6 h, cells were lysed; endogenous in cells; host or cells: RPMI 8226 (human multiple myeloma)
Text: A preliminary series of analogues, including the natural product glidobactin A (2), were synthesized by largely the same route (Scheme 2B, Figure 2).[36] Desoxycepafungin (38) was synthesized from Boc-Lys(Boc)-OH by peptide couplings/macrocyclization to assess the role of the macrocycle hydroxylation in 1 toward proteasome inhibition. The saturated cepafungin analogue 39 was designed to address the possible role of rigidity in the tail fragment induced by the diene seen in many natural cepafungins and glidobactins. An analogue bearing unsaturation at its macrocyclic lysine was envisioned to provide a head-to-head comparison between the cepafungin and syringolin macrocyclic core. […] Proteasome subunit β5 IC50 values were determined in situ in RPMI 8226 cells. In close agreement with prior measurement of β5 IC50 for natural 1 and 2 in purified yeast proteasome,[12] in our hands the additional branching methyl in 1 indeed leads to ca. 5-fold improved IC50 compared to 2 in RPMI 8226 cells. […] Likewise, saturation of the fatty acid fragment in 39 causes ca. 14-fold decrease in β5 inhibition. This preliminary series of analogues highlighted that the macrocyclic hydroxylation, fatty acid unsaturation, and terminal lipid functionality are critical for potent proteasome inhibitory activity.
Cellular assays were performed on human multiple myeloma RPMI 8226 cells (Figure 4). First, relative inhibition of proteasome subunits β5 and β2 for all analogues and the natural product was measured at 30 nM compound concentration. Following incubation of the compounds in cell culture for 6 h, cells were lysed, and fluorogenic subunit-specific peptide substrates Suc-LLVY-AMC (β5) or Ac-RLR-AMC (β2) were incubated with the lysates; fluorescence readings provided relative proteasome activity levels in comparison with DMSO (Figure 4A). Next, cytotoxicity screening was performed at 30 and 100 nM concentrations for sufficient coverage of dynamic range (Figure 4B). […] Therefore, the improved cytotoxicity of phenyl cepafungin 50 likely results from a more pronounced loss of β5 function in RPMI 8226 cells. This drastic increase in proteasome inhibition may be due to π-stacking of the lipid tail phenyl ring with the β6 subunit residues Tyr106 and/or Tyr5. The β2 subunit-bound natural product has residues Tyr102 and Phe103 on the adjacent β3 subunit oriented further away from the terminal lipid methyl groups, and presumably would not facilitate π-stacking to the extent possible at the adjacent β6 subunit (see Figure 3 and Figure S4). […] These combined modifications were made in hopes that the effects of both substitutions would be additive. […] The presence of a Thr residue next to the cepafungin macrocycle appears to be favored over the ethyl side chain of desoxy-Thr analogue 44 as indicated by cytotoxicity and hydrogen-bonding seen in the cepafungin-bound crystal structure (Figures 3 and 4B). […]
Mammalian cell culture and lysate preparation
Mammalian cells were maintained in RPMI-1640 media. All media were supplemented with 10% fetal bovine serum (FBS, Life Technologies Cat# 10437028), non-essential amino acids (Sigma-Aldrich Cat# M7145) and penicillin/streptomycin (Sigma-Aldrich Cat# P4333). Cells were grown at 37 °C under 5% CO2 atmosphere. […] Cells were lysed by needle sonication to obtain cell lysates and protein concentration was determined using the […]
fluorescence was read at A360ex/A460em. […]

[2] = target: T1, proteasome subunit β5; details: in situ in RPMI 8226 cells; preliminary analogue series, Figure 2; cited from earlier work
[3] = Macrolactamisation of unprotected diamino acid: Lys epsilon-NH2 to vinylogous amino acid CO2H, DMTMMT (BF4 salt, 1.5 equiv), DIPEA (4 equiv); free alpha-NH2 and OH present; details: the molecule shown is the open-chain precursor, 12-membered ring, DMF, 1.0 mM, 25.0 °C
[4] = test system: RPMI 8226 cells; assay: Cytotoxicity measurement (WST-1), RPMI 8226; format: cell-based, human; details: for EC50: Homo sapiens, RPMI 8226, 48 hours, WST-1, n = 3, read-out: Cytotoxicity EC50 (cell viability); for Potency in cytotoxicity screening relative to natural product 1: RPMI 8226, 30 and 100 nM compound concentration, n = 3, Figure 4B
Description: Cellular assays were performed on human multiple myeloma RPMI 8226 cells (Figure 4). First, relative inhibition of proteasome subunits β5 and β2 for all analogues and the natural product was measured at 30 nM compound concentration. Following incubation of the compounds in cell culture for 6 h, cells were lysed, and fluorogenic subunit-specific peptide substrates Suc-LLVY-AMC (β5) or Ac-RLR-AMC (β2) were incubated with the lysates; fluorescence readings provided relative proteasome activity levels in comparison with DMSO (Figure 4A). Next, cytotoxicity screening was performed at 30 and 100 nM concentrations for sufficient coverage of dynamic range (Figure 4B). […] Therefore, the improved cytotoxicity of phenyl cepafungin 50 likely results from a more pronounced loss of β5 function in RPMI 8226 cells. This drastic increase in proteasome inhibition may be due to π-stacking of the lipid tail phenyl ring with the β6 subunit residues Tyr106 and/or Tyr5. The β2 subunit-bound natural product has residues Tyr102 and Phe103 on the adjacent β3 subunit oriented further away from the terminal lipid methyl groups, and presumably would not facilitate π-stacking to the extent possible at the adjacent β6 subunit (see Figure 3 and Figure S4). […] These combined modifications were made in hopes that the effects of both substitutions would be additive. […] The presence of a Thr residue next to the cepafungin macrocycle appears to be favored over the ethyl side chain of desoxy-Thr analogue 44 as indicated by cytotoxicity and hydrogen-bonding seen in the cepafungin-bound crystal structure (Figures 3 and 4B).
AMC (β5) or Ac-RLR-AMC (β2). […]
Cytotoxicity Measurements
in DMSO) or DMSO and cultured for 48 hours. Toxicity was determined using the WST-1 assay
(Roche) according to the protocol of the manufacturer. (n = 3)
Figure S1. […]

[5] = test system: MM.1S; details: Cell line: MM.1S; Figure 2; cited from earlier work
[6] = test system: MM.1S BtzR; details: Cell line: MM.1S BtzR; Figure 2; cited from earlier work
[7] = test system: Mino; details: Cell line: Mino; Figure 2; cited from earlier work
[8] = test system: Mino BtzR; details: Cell line: Mino BtzR; Figure 2; cited from earlier work
[9] = test system: RPMI 8226 cells; assay: Global proteomics analysis via LC-MS/MS of RPMI 8226 cells treated with BTZ or 50 (Table S5); format: cell-based, human
Description: Finally, we evaluated the changes in global protein expression following treatment of RPMI 8226 cells with either BTZ or 50. […] Following treatment, cells were collected via centrifugation, and protein lysates were digested with trypsin and analyzed using LC-MS/MS.
Global proteomics analysis via LC-MS/MS.
RPMI 8226 cells were seeded in a 6-well plate (1,000,000 cells/well) in cell culture media supplemented with DMSO, BTZ (2.5 nM, 1000x stock in DMSO), or 50 (3 nM, 1000x stock in DMSO) for 14 h. Cells were centrifuged (3,000 x g 5 min 4°C) and washed twice with PBS. Cell pellets were resuspended in PBS and protein concentration was determined using the Bradford assay (Bio-Rad). Urea (9 M in 100 mM NH4HCO3 pH 8) was added to a final concentration of 6 M to 30 µg lysate (15 µL PBS). […] Peptides were resuspended in water with 0.1 % FA and analyzed using EASY-nLC 1200 nano-UHPLC coupled to Q Exactive HF-X Quadrupole-Orbitrap mass spectrometer (Thermo Scientific). […]
The MS data were analyzed with MaxQuant (V2.0.3.0) and searched against the human proteome (Uniprot) and a common list of contaminants (included in MaxQuant). […] The minimum peptide length was set to 6 amino acids and peptide re-quantification and “match between runs” was enabled. […]

[10] = test system: RPMI 8226 cells; assay: Cytotoxicity measurement (WST-1), RPMI 8226; format: cell-based; details: Homo sapiens, 24 h; RPMI 8226, used as treatment concentration for proteomics
[11] = test system: RPMI 8226 cells; details: ∼3700 proteins quantified, 19 in common; cited from earlier work
[12] = test system: U266; assay: Cytotoxicity measurement (WST-1), U266; details: Homo sapiens, U-266, 48 h, read-out: Cytotoxicity EC50
Description: (§1) Cells of the indicated cell line origin were seeded in a 96-well plate (20,000 cells/well) in
(§2) cell culture media supplemented with indicated compounds at given concentrations (1,000x stock
(§3) in DMSO) or DMSO and cultured for 48 hours. Toxicity was determined using the WST-1 assay (Roche) according to the protocol of the manufacturer. (n = 3)

[13] = test system: H929; assay: Cytotoxicity measurement (WST-1), H929; details: Homo sapiens, NCI-H929, 48 h, read-out: Cytotoxicity EC50
Description: as §1, §2, §3

[14] = test system: HBL2; assay: Cytotoxicity measurement (WST-1), HBL2; details: Homo sapiens, HBL2, 48 h, read-out: Cytotoxicity EC50
Description: as §1, §2, §3

[15] = test system: Mino; assay: Cytotoxicity measurement (WST-1), Mino; details: Homo sapiens, 48 h, read-out: Cytotoxicity EC50
Description: as §1, §2, §3

[16] = test system: JeKo-1; assay: Cytotoxicity measurement (WST-1), JeKo-1; details: Homo sapiens, JeKo-1, 48 h, read-out: Cytotoxicity EC50
Description: as §1, §2, §3

CC(C)CCCCC/C=C/C=C/C(=O)N[C@H](C(=O)N[C@H]1CCCCNC(=O)/C=C/[C@H](C)NC1=O)[C@@H](C)O [compound 38, Desoxycepafungin]
fold higher IC50 than 1 ([1]; β5, RPMI 8226 cells): ca. 11 fold
IC50 [2]: 184 ± 29 nM

CCCCCCC/C=C/C=C/C(=O)N[C@H](C(=O)N[C@H]1C[C@@H](O)CCNC(=O)/C=C/[C@H](C)NC1=O)[C@@H](C)O [compound 2, glidobactin A]
IC50 [2]: 77 ± 5 nM

C[C@@H](/C=C/C(=O)O)NC(=O)[C@@H](N)C[C@@H](O)CCN
ring closure, yield by NMR [3]: 63%

CC(C)[C@@H](/C=C/C(=O)O)NC(=O)[C@@H](N)C[C@@H](O)CCN
ring closure, yield by NMR ([3]; 36.0 h): 47%

CC(C)[C@H]1/C=C/C(=O)NCC[C@H](O)C[C@H](NC(=O)[C@@H](NC(=O)/C=C/C=C/CCCCCc2ccccc2)[C@@H](C)O)C(=O)N1 [S39]
EC50 [4]: 4.5 nM

CC(C)CCCCC/C=C/C=C/C(=O)N[C@H](C(=O)N[C@H]1C[C@@H](O)CCNC(=O)/C=C/[C@H](C(C)C)NC1=O)[C@@H](C)O [compound 43, valinyl cepafungin]
Potency in cytotoxicity screening relative to natural product 1 [4]: more potent than the parent natural product 1

C[C@@H](/C=C/C(=O)O)NC(=O)[C@@H](N)[C@@H](O)CCCN
ring closure, yield by NMR ([3]; 36.0 h): 47%

CC(C)CCCCCCCCCC(=O)NC(C(=O)NC1CC(O)CCNC(=O)C=CC(C)NC1=O)C(C)O (stereo not drawn) [compound 39]
fold decrease in β5 inhibition on saturation of the fatty acid fragment ([1]; 39 versus 1, RPMI 8226 cells): ca. 14 fold
IC50 [2]: 219 ± 11 nM

CC(C)CCCCC/C=C/C=C/C(=O)N[C@H](C(=O)N[C@H]1C[C@H](O)CCNC(=O)/C=C/[C@H](C)NC1=O)[C@@H](C)O [compound 40, epi-4-OH cepafungin]
Potency in cytotoxicity screening relative to natural product 1 [4]: nearly inactive at both concentrations

CCCCCCCCCCCCNC(=O)N[C@H](C(=O)N[C@H]1/C=C/CCNC(=O)/C=C/[C@H](C)NC1=O)C(C)C [compound 37, TIR-199]
EC50 [5]: 48 ± 8.7 nM
EC50 [6]: 81 ± 5.8 nM
EC50 [7]: 64 ± 2.1 nM
EC50 [8]: 130 ± 2 nM

CC(C)CCCCC/C=C/C=C/C(=O)N[C@H](C(=O)N[C@H]1CC(=O)CCNC(=O)/C=C/[C@H](C)NC1=O)[C@@H](C)O [compound 42, keto cepafungin]
Potency in cytotoxicity screening relative to natural product 1 [4]: potency approaching that of the natural product

C[C@@H](/C=C/C(=O)O)NC(=O)[C@@H](N)C[C@H](O)CCN
ring closure, yield by NMR ([3]; 36.0 h): 59%

C[C@@H](/C=C/C(=O)O)NC(=O)[C@@H](N)CC(=O)CCN
ring closure, yield by NMR ([3]; 36.0 h): 51%

CC(C)C[C@H](NC(=O)[C@H](Cc1ccccc1)NC(=O)c1cnccn1)B(O)O [bortezomib]
EC50 [4]: 2.2 ± 0.1 nM
overlap of upregulated proteins commonly affected by BTZ and 50 ([9]; 17 common proteins): 59%
number of proteins with statistically significant increase in expression ([9]; RPMI 8226, 14 h, 2.5 nM BTZ or 3 nM 50 vs DMSO, out of 4080 quantified, FDR 5%, S0 0.1): 29 proteins
EC50 [10]: 2.5 nM
number of proteins upregulated compared to DMSO control [11]: 25 proteins
EC50 [5]: 2.3 ± 0.03 nM
EC50 [6]: 28 ± 0.6 nM
EC50 [7]: 10 ± 0.4 nM
EC50 [8]: 23 ± 1.1 nM
EC50 [12]: 3.1 ± 0.1 nM
EC50 [13]: 1.5 ± 0.2 nM
EC50 [14]: 2.5 ± 0.4 nM
EC50 [15]: 7.4 ± 0.3 nM
EC50 [16]: 7 ± 0.5 nM

CC(C)CCCCC/C=C/C=C/C(=O)N[C@H](C(=O)N[C@@H]1C(=O)N[C@@H](C)/C=C/C(=O)NCCC[C@@H]1O)[C@@H](C)O [compound 41, 3-OH cepafungin]
Potency in cytotoxicity screening relative to natural product 1 [4]: nearly inactive at both concentrations
